Results published in patent US20080119483A1, “COMPOSITIONS AND METHODS FOR INHIBITING PROTOZOAN GROWTH” (priority 2006, published 2008).
Entries after “also recorded” stand apart in the source; their conditions may differ. Read-outs that look alike come from different tables or passages of the source.

Assays:
[1] = tested on: L. major spt2^− promastigotes; assay: Detergent resistant membrane fractions (insoluble GP63), spt2^− promastigotes; format: cell-based, Leishmania major
Protocol: (§1) Detergent resistant membrane fractions (DRMs) were prepared using Triton X-100 from L. major promastigotes as previously described [Zhang, et al., 2003. Such DRMs are usually enriched for raft-associated materials and have been used to characterize rafts [London, et al., 2000; Brown, et al., 1998]. A typical marker for a raft in Leishmania parasites is GP63, a GPI-anchored metalloprotease, which can be detected from DRM samples by western-blot [Zhang, et al., 2003].
(§2) Here WT and spt2^− parasites were grown in various concentrations of ITZ (0.001 nM to 1 μM) or CLT (10 nM to 5 μM). Effects of ITZ and CLT on growth, sterol composition and DRM were analyzed after 48 hours. Basically, culture densities were determined using a particle counter and drugs' effects on growth were assessed in comparison to control cells (no drug); sterol lipids were extracted and analyzed by GC/MS and the percentage of 14-methylfecosterol (among all detectable sterol lipids) was used to reflect changes in sterol composition (see Table 2). […]
(§3) Detergent resistant membrane fractions (DRMs) were isolated and a western blot with a monoclonal antibody again Leishmania GP63 #235 was performed as previously described [Zhang, et al., 2003]. Percentages of GP63 in soluble and insoluble fraction after extractions at 4° C. were determined using a Fuji FLA5000 phosphoimager.

[2] = tested on: L. major LV39 WT promastigotes; assay: Composition of free sterols by GC/MS, WT promastigotes; format: cell-based, Leishmania major; details: 48 hours
Protocol: (§4) Log phase L. major LV39 WT and spt2^− promastigotes were grown in the presence or absence of ITZ or CLT. Culture densities were determined 48 hours later and total lipids were extracted and the composition of free sterols was determined by GC/MS as described in Materials and Methods. ND: not detectable. Each experiment was repeated at least 3 times and results from one representative set were shown.
(§5) Here WT and spt2^− parasites were grown in various concentrations of ITZ (0.001 nM to 1 μM) or CLT (10 nM to 5 μM). Effects of ITZ and CLT on growth, sterol composition and DRM were analyzed after 48 hours. Basically, culture densities were determined using a particle counter and drugs' effects on growth were assessed in comparison to control cells (no drug); sterol lipids were extracted and analyzed by GC/MS and the percentage of 14-methylfecosterol (among all detectable sterol lipids) was used to reflect changes in sterol composition (see Table 2). DRMs were also isolated and the percentage of GP63 that were insoluble at 4° C. was used as an indicator for the integrity of DRM (see FIG. 2). Two to four independent experiments were performed and the averaged results were plotted in FIG. 3.
(§6) Total lipids were extracted using the Folch's method [Folch, et al., 1957]. Briefly, promastigotes were harvested by centrifugation and washed once with PBS. Pellets were resuspended in chloroform:methanol (2:1) at 1.0×10^8 cells/ml with the addition of cholesta-3,5-diene (Sigma-Aldrich, FW 368.7) at 0.5 mg/10^8 cells (6.6×10^7/cell). After vortexing for 30 s, cell debris was removed by centrifugation (1000 g for 10 min) and samples were washed with 0.2 volume of 0.9% NaCl. After centrifugation, supernatants were removed and the organic phase solutions were dried under a stream of nitrogen. Samples were then dissolved in chloroform:methanol (1:2) at 1.0×10^9 cells/ml.
(§7) Electron impact gas chromatography/mass spectrometry (GC/MS) analyses of sterol lipids were performed on a Finnigan (San Jose, Calif.) SSQ-7000 single-stage quadrupole mass spectrometer with a Varian (Walnut Creek, Calif.) 3400 GC, which is controlled by Finnigan ICIS software operated on a DEC alpha station. The extracts in solution […] were injected in a splitless mode and analyzed by GC on a Restek (Bellefonte, Pa.) RTX-5 column (15 m, 0.33 mm id, […]). The initial temperature of GC was set at 80° C. for 1 min, increased to 220° C. at a rate of 50° C./min, and then raised to a final temperature of 280° C. at a rate of 10° C./min. The temperatures of the injector, transfer line of the GC column, and of the ion-source were set at 280° C., 280° C., and 240° C., respectively. The full scan mass spectra (50 to 500 Dalton) were acquired at a rate of 1 scan/0.25 Sec.

[3] = tested on: L. major LV39 WT promastigotes; assay: microbe, parasite or virus in culture; format: cell-based, Leishmania major; details: for EC50: Leishmania major
Protocol: (§8) Log phase L. major LV39 WT and spt2 promastigotes were inoculated at 1.0×10^5 cells/ml and culture densities were determined 48 hours later.
(§9) Wild type (WT) L. major LV39 clone 5 (Rho/SU/59/P), FV1 (MOHM/IL/80/Friedlin virulent clone 1), spt2^− (Δspt2::HYG/Dspt2::PAC), ads1^− (Δads1::HYG/Dads1::SAT), and spt2^−/+SPT2 (Δspt2::HYG/Dspt2::PAC/+pXG-SPT2) cells were grown in M199 with 10% FBS and supplements as described [Zhang, et al., 2003; Kapler, et al., 1990]. For growth inhibition assays, promastigotes were inoculated at 1.0×10^5 cells/ml (in T25 flasks, 5 ml of medium per flask) in various concentrations of drugs. All cultures contained equivalent amount of DMSO or methanol (0.1% or less, from drug stocks). After 48 or 96 (for ads1^− only) hours, culture densities were determined using a Coulter counter (Z1, Beckman) and effects of drugs on growth were assessed in relative to cultures grown in the absence of drugs.
A classical isobologram was constructed by plotting EC50s of drugs either alone or in combination.

[4] = tested on: L. major LV39 WT promastigotes; assay: Detergent resistant membrane fractions (insoluble GP63), WT promastigotes; format: cell-based, Leishmania major
Protocol: as §1, §2, §3

[5] = tested on: L. major spt2^− promastigotes; assay: microbe, parasite or virus in culture; format: cell-based, Leishmania major; details: for EC50: Leishmania major, 48 h, read-out: EC50 in spt2^−; for EC50 (WT)/EC50 (spt2^−): ratio
Protocol: as §8, §9

[6] = tested on: L. major spt2^− promastigotes; assay: Composition of free sterols by GC/MS, spt2^− promastigotes; format: cell-based, Leishmania major; details: 48 hours
Protocol: as §4, §5, §6, §7

[7] = tested on: Leishmania amastigotes growing in murine macrophages; assay: Amastigotes growing in murine macrophages; format: cell-based; details: preliminary results, data not shown
[8] = tested on: L. major ads1^− promastigotes; assay: Growth inhibition assay, EPL-null ads1^− mutant versus FV1 WT; format: cell-based, Leishmania major; details: 96 hours for ads1^−
Protocol: as §9

[9] = tested on: L. major spt2^− promastigotes; assay: Flagellar localization of FcaBP-HA (immunofluorescence), spt2^− promastigotes; format: cell-based, Leishmania major; details: concentration 5˜10 times of EC50 for 20 hours, data not shown
[10] = 48 h, LV39 WT promastigotes, 48 hours, read-out: EC50 in WT

With `CCC(C)n1ncn(-c2ccc(N3CCN(c4ccc(OCC5COC(Cn6cncn6)(c6ccc(Cl)cc6Cl)O5)cc4)CC3)cc2)c1=O` (centres unmarked) [Itraconazole] the “ITZ concentration causing significant reduction of insoluble GP63 at 4° C.” value ([1]; spt2^− parasites) was “higher than 1 nM”, the “GP63 in DRM” value ([1]; spt2^−, 1˜10 nM ITZ, 4° C., 45˜50% in control cells) was 24˜28% and the “5-dehydroepisterol (%)” value ([2]; WT + 1 nM ITZ) was 9.6%. The “14-methylfecosterol (%)” value ([2]; WT + 1 nM ITZ) was 62.3%, the “Cholesterol (%)” value ([2]; WT + 1 nM ITZ) was 2.9% and the “Episterol (%)” value ([2]; WT + 1 nM ITZ) was 0.9%. For the same compound, the “Ergosterol (%)” value ([2]; WT + 1 nM ITZ) was 24.3%, the Total sterols/cell ([2]; WT + 1 nM ITZ) was 2.0 × 10^8 /cell and the “5-dehydroepisterol (%)” value ([2]; WT + 5 nM ITZ) was 1.7%. For the same compound, the “14-methylfecosterol (%)” value ([2]; WT + 5 nM ITZ) was 92.2%, the “Cholesterol (%)” value ([2]; WT + 5 nM ITZ) was 3.2% and the “Ergosterol (%)” value ([2]; WT + 5 nM ITZ) was 2.9%. The Total sterols/cell ([2]; WT + 5 nM ITZ) was 3.3 × 10^8 /cell, the “14-methylfecosterol among all sterols” value ([2]; WT, 1˜10 nM ITZ) was 80˜92% and the endogenous sterols ([2]; WT, 1˜10 nM ITZ) was 4˜6%. It also gave an EC50 [3, 10] of about 1100 nM, an EC50 ([3]; LV39 WT grown in the presence of 10 μM MYR, read-out: EC50 for ITZ in WT + 10 μM myriocin) of about 4.6 nM and an EC50 ([3]; read-out: EC50 of ITZ in combination with 25 μM MYR) of 0.92 nM. The EC50 ([3]; read-out: EC50 of ITZ in combination with […] MYR) was 131 nM, the “Growth (%)” value ([3]; WT + 1 nM ITZ, 48 hours) was 91.5% and the “Growth (%)” value ([3]; WT + 5 nM ITZ, 48 hours) was 81.6%. The “growth, % of control” value ([3]; WT, 1˜10 nM ITZ, 48 hours) was 75˜95%, the “ITZ concentration significantly inhibiting growth and DRM stability in WT” value ([4]; WT parasites) was “more than 100 nM” and the “GP63 in DRM” value ([4]; WT, 1˜10 nM ITZ, 4° C., 50˜55% in control cells) was 40˜55%. The EC50 [5] was 3.9 nM, the “EC50 (WT)/EC50 (spt2^−)” value [5] was 282 and the “Growth (%)” value ([5]; spt2^− + 1 nM ITZ, 48 hours) was 64.6%. The “Growth (%)” value ([5]; spt2^− + 5 nM ITZ, 48 hours) was 29.4%, the “proliferation, % of control” value ([5]; spt2^−, 1˜10 nM ITZ, 48 hours) was 28˜67% and the “5-dehydroepisterol (%)” value ([6]; spt2^− + 1 nM ITZ) was 3.7%. The “14-methylfecosterol (%)” value ([6]; spt2^− + 1 nM ITZ) was 59.4%, the “Cholesterol (%)” value ([6]; spt2^− + 1 nM ITZ) was 22.0% and the “Episterol (%)” value ([6]; spt2^− + 1 nM ITZ) was 1.6%. For the same compound, the “Ergosterol (%)” value ([6]; spt2^− + 1 nM ITZ) was 13.2%, the “Lanosterol (%)” value ([6]; spt2^− + 1 nM ITZ) was 0.1% and the Total sterols/cell ([6]; spt2^− + 1 nM ITZ) was 4.0 × 10^8 /cell. For the same compound, the “5-dehydroepisterol (%)” value ([6]; spt2^− + 5 nM ITZ) was 2.1%, the “14-methylfecosterol (%)” value ([6]; spt2^− + 5 nM ITZ) was 75.2% and the “Cholesterol (%)” value ([6]; spt2^− + 5 nM ITZ) was 17.1%. For the same compound, the “Episterol (%)” value ([6]; spt2^− + 5 nM ITZ) was 0.4%, the “Ergosterol (%)” value ([6]; spt2^− + 5 nM ITZ) was 4.0% and the “Lanosterol (%)” value ([6]; spt2^− + 5 nM ITZ) was 1.2%. The Total sterols/cell ([6]; spt2^− + 5 nM ITZ) was 4.4 × 10^8 /cell and the endogenous sterols ([6]; spt2^−, 1˜10 nM ITZ) was 4˜6%.

`CCCCCCC(=O)CCCCCC/C=C/C[C@@H](O)[C@H](O)[C@@](N)(CO)C(=O)O` [MYR, myriocin] showed an EC50 [3, 10] of about 55000 nM, an EC50 ([3]; LV39 WT, 750 nM ITZ, read-out: EC50 of MYR in combination with 750 nM ITZ) of 1500 nM and an EC50 ([3]; read-out: EC50 for MYR in the presence of 0.5 μM ITZ, LV39 WT, 500 nM ITZ) of about 1800 nM. For the same compound, the EC50 ([3]; read-out: EC50 of MYR in combination with 250 nM ITZ, LV39 WT, 250 nM ITZ) was 2200 nM, the “Effect of MYR on the efficacy of ITZ on amastigotes” value [7] was “does not improve the efficacy of ITZ” and the “Sensitivity of ads1^− mutant in comparison to FV1 WT” value [8] was “hypersensitive”.

`CN(C/C=C/C#CC(C)(C)C)Cc1cccc2ccccc12` [Terbinafine] was tested, and the EC50 [3, 10] was 4300 nM, the “Sensitivity of ads1^− mutant in comparison to FV1 WT” value [8] was “very similar EC50s; also recorded: little or no selectivity” and the “Mislocalization of FcaBP-HA” value [9] was “did not show such defect”. The EC50 [5] was 3300 nM, the “EC50 (WT)/EC50 (spt2^−)” value [5] was 1.3 and the “Selectivity against spt2^− parasites (in words)” value ([5]; spt2^− versus LV39 WT) was “did not cause the extreme hypersensitivity”.
